Where a name gives a salt, the structure may show the parent alone. Read-outs that look alike come from different tables or passages of the source. Square brackets hold non-standard residues; d marks the D form. Peptide text beside a SMILES is read from it. * marks the point of attachment. Sta = CC(C)C[C@H](N)[C@@H](O)CC(=O)O; Isovaleryl = CC(C)CC(=O)*
Tests used:
[1] = tested on: HL-60 and/or U937; test: Protease retention assay inhibitor/adjuncts survey with Gly-Phe-AFC; format: cell-based; settings: for Comments: no inhibition/no effect to (concentration): highest concentration without effect on retention activity
From the text: (§1) Puromycin, E-64, Phenylmethanesulfonyl fluoride (PMSF), Adenosine 5′-triphosphate (ATP), N-(α-Rhamnopyranosyloxyhyrdoxyphosphinyl)-Leu-Trp disodium salt (Phosphoramidon), N-[(2S,3R)-3-Amino-2-hydroxy-4-phenylbutyryl-L-leucine hydrochloride (Bestatin), 1,10-Phenathroline, […], 4-(2-Aminoethyl)benzenesulfonyl fluoride (AEBSF), 1,4-Dithio-DL-threitol (DTT), Edetate disodium dihyrdrate (EDTA), Isovaleryl-L-valyl-L-valyl-[(3S,4S)-4-amino-3-hydroxy-6-methylheptanoyl]-L-alanyl[93S,4S]-4-amino-3-hydroxy-6-methylheptanoicacid (Pepstatin A), sodium chloride, Aprotinin, N-Acetyl-L-leucyl-L-leucyl-L-argininal hemisulfate salt (leupeptin) were all purchased from Sigma. Inhibitors were resuspended in DMSO to varying stock concentrations with a high target concentration of 200 μM or 200 μg/ml in Dulbecco's Phosphate Buffer Saline w/o Mg^++ or Ca^++ (DPBS) for addition to either lysates or viable cell populations. DTT, NaCl, EDTA, and ATP were also diluted in DPBS. All compounds were incubated with compromised or viable cells for a period of at least 30 minutes (most 60 minutes) at 37° C. prior to assessment of activity.
(§2) The protease retention assay inhibitor/adjuncts survey was conducted on sonicated, saponin-lysed, or viable HL-60 and/or U937 using Gly-Phe-AFC at 100 μM final concentration as described previously. The protease release assay inhibitor/adjuncts survey was conducted on sonicated, saponin-lysed, or viable HL-60, SK-MEL-28, and/or U937 using Ala-Ala-Phe-AMC or (Ala-Ala-Phe)2-Rhodamine 110.

[2] = tested on: HL-60, SK-MEL-28, U937; test: Protease release assay inhibitor/adjuncts survey with Ala-Ala-Phe-AMC; format: cell-based; settings: for Comments: extent of the effect on release activity, in words
From the text: as §1, §2

[3] = extent or nature of the effect on retention activity, in words
[4] = on protease retention activity, Gly-Phe-AFC at 100 μM final, sonicated, saponin-lysed, or viable cells
[5] = on protease release activity, Ala-Ala-Phe-AMC, sonicated, saponin-lysed, or viable cells
[6] = highest concentration without inhibition of release activity

Molecule	Effect [1, 4]	Effect [2, 5]	Comments: no inhibition to (concentration) [2, 6]	also measured
O[C@@H](CS)[C@@H](O)CS (racemic) [DTT, 1,4-Dithio-DL-threitol]	Augments	Augments		Protease retention activity profile in the presence of inhibitors or adjuncts [1]: independent; Comments [1, 3]: Very slightly; Comments [2]: Modest
c1cnc2c(c1)ccc1cccnc12 [1,10 Phenanthroline, 1,10-Phenathroline]	No inhib	No inhib	to 100 uM	Comments: no inhibition/no effect to (concentration) [1]: to 100 uM
O=c1oc(Cl)c(Cl)c2ccccc12 [3,4 Diisocoumarin, 3,4-diisocoumarin]	Inhibition(?)	Inhibition		Comments [1, 3]: Kills cells; Comments [2]: Strong
NCCc1ccc(S(=O)(=O)F)cc1 [AEBSF, 4-(2-Aminoethyl)benzenesulfonyl fluoride]		Inhibition		Comments [2]: Strong
Nc1ncnc2c1ncn2[C@@H]1O[C@H](COP(=O)(O)OP(=O)(O)OP(=O)(O)O)[C@@H](O)[C@H]1O [ATP, Adenosine 5′-triphosphate]	No effect			Protease retention activity profile in the presence of inhibitors or adjuncts [1]: independent; Comments: no inhibition/no effect to (concentration) [1]: to 100 uM
CC(C)C[C@H](NC(=O)[C@@H](O)[C@H](N)Cc1ccccc1)C(=O)O [Bestatin, N-[(2S,3R)-3-Amino-2-hydroxy-4-phenylbutyryl-L-leucine hydrochloride]	Inhibition	No inhib	to 10 uM	Protease retention activity profile in the presence of inhibitors or adjuncts [1]: sensitivities; Comments [1, 3]: Strong
CC(C)C[C@H](NC(=O)[C@H]1O[C@@H]1C(=O)O)C(=O)NCCCCN=C(N)N [E-64]	No inhib	No inhib	to 100 uM	Comments: no inhibition/no effect to (concentration) [1]: to 100 uM
O.O.O=C([O-])CN(CCN(CC(=O)[O-])CC(=O)O)CC(=O)O.[Na+].[Na+] [EDTA, Edetate disodium dihyrdrate]				Comments [1]: Also reduces; Effect [1]: Inhibition; Protease retention activity profile in the presence of inhibitors or adjuncts [1]: sensitivities; Comments: no inhibition to (concentration) [2]: to 50 mM; Effect [2]: No inhib
NC(N)=NCCC[C@H](NC(=O)[C@@H]1CCCN1C(=O)[C@H](N)Cc1ccccc1)C(=O)CCl [FPR-CMK]		Inhibition		Comments [2]: Moderate
CC(=O)N[C@@H](CC(C)C)C(=O)N[C@@H](CC(C)C)C(=O)N[C@H](C=O)CCCNC(=N)N [Leupeptin, N-Acetyl-L-leucyl-L-leucyl-L-argininal hemisulfate salt]		No inhib	to 100 ug/ml	
[Cl-].[Na+] [NaCl, sodium chloride]	No inhib			Comments [1, 3]: Insensitivity
O=S(=O)(F)Cc1ccccc1 [PMSF, Phenylmethanesulfonyl fluoride]	No inhib	Inhibition		Comments: no inhibition/no effect to (concentration) [1]: to 100 uM; Comments [2]: Strong
CC(C)CC(=O)N[C@H](C(=O)N[C@H](C(=O)N[C@@H](CC(C)C)[C@@H](O)CC(=O)N[C@@H](C)C(=O)N[C@@H](CC(C)C)[C@@H](O)CC(=O)O)C(C)C)C(C)C [Pepstatin, Isovaleryl-L-valyl-L-valyl-[(3S,4S)-4-amino-3-hydroxy-6-methylheptanoyl]-L-alanyl[93S,4S]-4-amino-3-hydroxy-6-methylheptanoicacid] (Isovaleryl-VV[Sta]A[Sta]-OH)		No inhib	to 100 uM	
CC(C)C[C@H](NP(=O)(O)O[C@@H]1O[C@@H](C)[C@H](O)[C@@H](O)[C@H]1O)C(=O)N[C@@H](Cc1c[nH]c2ccccc12)C(=O)O [Phosphoramidon, N-(α-Rhamnopyranosyloxyhyrdoxyphosphinyl)-Leu-Trp disodium salt]	No inhib	No inhib	to 100 uM	Comments: no inhibition/no effect to (concentration) [1]: to 100 uM
COc1ccc(C[C@H](N)C(=O)N[C@H]2[C@@H](O)[C@H](n3cnc4c(N(C)C)ncnc43)O[C@@H]2CO)cc1 [Puromycin]	Inhibition			Protease retention activity profile in the presence of inhibitors or adjuncts [1]: sensitivities; Comments [1, 3]: Very modest
Antitrypsin: Serine (trypsin-like) protease inhibitor in Table 6		No inhib	to 100 ug/ml	
Aprotinin		No inhib	to 100 uM	

— patent US8476036B2, “Nonluminogenic assay for living cells” (Promega Corporation, priority 2004, dated 2013)
